Data from patent publication US10654853B2, “Spiro-condensed pyrrolidine derivatives as deubiquitylating enzymes (DUB) inhibitors” (MISSION THERAPEUTICS LIMITED, priority 2016, dated 2020).
Where two headings read alike, the source gives them in different places.

Target: Cezanne 1 (Homo sapiens (Human), UniProt Q6GQQ9)
Assay: Cezanne 1 biochemical IC50 assay (fluorescence polarisation, TAMRA labelled peptide linked to ubiquitin)
Experimental: The Cezanne 1 construct was PCR amplified and cloned into a pFLAG-CMV-6c vector (Sigma-Aldrich) with an N-terminal FLAG tag. HEK293T cells were transfected with FLAG-Cezanne 1 using TransIT-LT1 transfection reagent (Mirus) according to the manufacturer's instructions. Cells were harvested 48 hours after transfection. […] The resin was washed two times with low salt buffer and one time with high salt buffer (20 mM Tris, pH 7.5, 500 mM NaCl, 0.5 mM EDTA, 5 mM beta-mercaptoethanol, protease inhibitors (complete mini, Roche) and phosphatase inhibitors (PhosSTOP mini, Roche). To elute the bound Cezanne 1, elution buffer (10 mM Tris, pH 7.5, 150 mM NaCl, 0.5 mM EDTA, 10% glycerol, 0.5% NP40, 5 mM beta-mercaptoethanol, 0.15 mg/ml 3× FLAG peptide (Sigma-Aldrich)) was added to the resin and incubated at 4° C. for 2.5 hours while rotating. The resin was centrifuged at 4000 rpm for 30 seconds, and the supernatant containing purified FLAG-Cezanne 1 was removed and stored at −80° C. […] Dilution plates were prepared at 21 times the final concentration (2100 μM for a final concentration of 100 μM) in 50% DMSO in a 96-well polypropylene V-bottom plate (Greiner #651201). […] Reactions were performed in duplicate in black 384 well plates (small volume, Greiner 784076) in a final reaction volume of 21 μl. Either 1 μl of 50% DMSO or diluted compound was added to the plate. Cezanne 1 was diluted in reaction buffer (40 mM Tris, pH 7.5, 0.005% Tween 20, 0.5 mg/ml BSA, 5 mM—beta-mercaptoethanol) to the equivalent of 0.005 μl/well and 10 μl of diluted Cezanne 1 was added to the compound. Enzyme and compound were incubated for 30 min at room temp. Reactions were initiated by the addition of 50 nM of TAMRA labelled peptide linked to ubiquitin via an iso-peptide bond as fluorescence polarisation substrate. Reactions were read immediately after addition of substrate and following a 2 hr incubation at room temperature. Readings were performed on a Pherastar Plus (BMG Labtech). λ Excitation 540 nm; λ Emission 590 nm.

[1] = Cezanne 1 biochemical IC50 assay, 30 min pre-incubation, read after 2 hr at room temperature, read-out: IC50 range

Sequence of Cezanne 1 (Q6GQQ9 whole entry): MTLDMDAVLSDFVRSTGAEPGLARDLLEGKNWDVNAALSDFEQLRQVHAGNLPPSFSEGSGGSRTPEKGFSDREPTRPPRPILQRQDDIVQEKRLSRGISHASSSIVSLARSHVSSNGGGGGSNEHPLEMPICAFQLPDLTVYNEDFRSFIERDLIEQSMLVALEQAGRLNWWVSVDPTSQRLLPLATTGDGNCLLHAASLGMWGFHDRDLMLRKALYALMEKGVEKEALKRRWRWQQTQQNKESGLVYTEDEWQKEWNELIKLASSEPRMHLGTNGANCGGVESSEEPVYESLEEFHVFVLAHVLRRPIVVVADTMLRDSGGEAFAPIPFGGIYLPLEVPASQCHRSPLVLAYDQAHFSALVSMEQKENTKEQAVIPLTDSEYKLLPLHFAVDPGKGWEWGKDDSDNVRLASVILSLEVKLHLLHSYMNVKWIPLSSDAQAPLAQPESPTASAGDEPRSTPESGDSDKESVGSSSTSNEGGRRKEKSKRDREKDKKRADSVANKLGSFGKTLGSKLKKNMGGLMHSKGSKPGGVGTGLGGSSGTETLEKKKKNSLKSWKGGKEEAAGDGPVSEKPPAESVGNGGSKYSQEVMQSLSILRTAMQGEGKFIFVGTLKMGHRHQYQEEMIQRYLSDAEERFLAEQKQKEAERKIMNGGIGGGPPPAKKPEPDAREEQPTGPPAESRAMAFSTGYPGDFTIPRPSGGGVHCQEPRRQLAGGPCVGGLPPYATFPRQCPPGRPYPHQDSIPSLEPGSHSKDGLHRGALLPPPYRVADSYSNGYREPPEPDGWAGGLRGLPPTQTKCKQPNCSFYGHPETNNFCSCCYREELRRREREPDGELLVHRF

Compound	IC50 [1] [nM]	IC50 [nM]
CC1CC2(CCN(C#N)C2)C(=O)N1 (single isomer, unassigned) [Example 82, 8-Methyl-6-oxo-2,7-diazaspiro[4.4]nonane-2-carbonitrile]	> 10000	–
CC1CC2(CCN(C#N)C2)C(=O)N1 (single isomer, unassigned) [Example 83, 8-Methyl-6-oxo-2,7-diazaspiro[4.4]nonane-2-carbonitrile]	> 10000	–
N#CN1CCC2(CC(c3ccccc3)NC2=O)C1 (single isomer, unassigned) [Example 84, 6-Oxo-8-phenyl-2,7-diazaspiro[4.4]nonane-2-carbonitrile]	> 10000	–
N#CN1CCC2(Cc3ccccc3NC2=O)C1 (stereo not drawn) [Example 1, 2′-Oxo-1′,4′-dihydro-2′H-spiro[pyrrolidine-3,3′-quinoline]-1-carbonitrile]	1000 to 10000	–
N#CN1CCC2(Cc3ccc(Cl)cc3NC2=O)C1 (stereo not drawn) [Example 2, 7′-Chloro-2′-oxo-1′,4′-dihydro-2′H-spiro[pyrrolidine-3,3′-quinoline]-1-carbonitrile]	–	1000 to 10000
COc1ccc2c(c1)NC(=O)C1(CCN(C#N)C1)C2 (stereo not drawn) [Example 3, 7′-Methoxy-2′-oxo-1′,4′-dihydro-2′H-spiro[pyrrolidine-3,3′-quinoline]-1-carbonitrile]	–	1000 to 10000
N#CN1CCC2(Cc3ccc(-c4ccccc4)cc3NC2=O)C1 (stereo not drawn) [Example 4, 2′-Oxo-7′-phenyl-1′,4′-dihydro-2′H-spiro[pyrrolidine-3,3′-quinoline]-1-carbonitrile]	1000 to 10000	–
COc1ccc(C(C)C)cc1-c1ccc2c(c1)NC(=O)C1(CCN(C#N)C1)C2 (stereo not drawn) [Example 5, 7′-(5-Isopropyl-2-methoxyphenyl)-2′-oxo-1′,4′-dihydro-2′H-spiro[pyrrolidine-3,3′-quinoline]-1-carbonitrile]	1000 to 10000	–
N#CN1CCC2(Cc3ccc(-c4ccc(-c5ccccc5)cc4)cc3NC2=O)C1 (stereo not drawn) [Example 6, 7′-([1,1′-Biphenyl]-4-yl)-2′-oxo-1′,4′-dihydro-2′H-spiro[pyrrolidine-3,3′-quinoline]-1-carbonitrile]	–	1000 to 10000
N#CN1CCC2(Cc3ccc(-c4ccc(Oc5ccccc5)cc4)cc3NC2=O)C1 (stereo not drawn) [Example 11, 2′-Oxo-7′-(4-phenoxyphenyl)-1′,4′-dihydro-2′H-spiro[pyrrolidine-3,3′-quinoline]-1-carbonitrile]	1000 to 10000	–
Cn1cc(-c2ccc3c(c2)NC(=O)C2(CCN(C#N)C2)C3)cn1 (stereo not drawn) [Example 12, 7′-(1-Methyl-1H-pyrazol-4-yl)-2′-oxo-1′,4′-dihydro-2′H-spiro[pyrrolidine-3,3′-quinoline]-1-carbonitrile]	1000 to 10000	–
N#Cc1ccc(-c2ccc3c(c2)NC(=O)C2(CCN(C#N)C2)C3)cc1 (stereo not drawn) [Example 13, 7′-(4-Cyanophenyl)-2′-oxo-1′,4′-dihydro-2′H-spiro[pyrrolidine-3,3′-quinoline]-1-carbonitrile]	1000 to 10000	–
N#CN1CCC2(Cc3ccc(-c4cc(OC(F)(F)F)ccc4Cl)cc3NC2=O)C1 (stereo not drawn) [Example 14, 7′-(2-Chloro-5-(trifluoromethoxy)phenyl)-2′-oxo-1′,4′-dihydro-2′H-spiro[pyrrolidine-3,3′-quinoline]-1-carbonitrile]	1000 to 10000	–
CNC(=O)c1ccc(-c2ccc3c(c2)NC(=O)C2(CCN(C#N)C2)C3)cn1 (stereo not drawn) [Example 15, 5-(1-Cyano-2′-oxo-1′,4′-dihydro-2′H-spiro[pyrrolidine-3,3′-quinolin]-7′-yl)-N-methylpicolinamide]	1000 to 10000	–
CNC(=O)c1ccc(-c2ccc3c(c2)NC(=O)C2(CCN(C#N)C2)C3)cc1 (stereo not drawn) [Example 17, 4-(1-Cyano-2′-oxo-1′,4′-dihydro-2′H-spiro[pyrrolidine-3,3′-quinolin]-7′-yl)-N-methylbenzamide]	1000 to 10000	–
CN1CCN(c2ccc(-c3ccc4c(c3)NC(=O)C3(CCN(C#N)C3)C4)cc2)CC1 (stereo not drawn) [Example 19, 7′-(4-(4-Methylpiperazin-1-yl)phenyl)-2′-oxo-1′,4′-dihydro-2′H-spiro[pyrrolidine-3,3′-quinoline]-1-carbonitrile]	100 to 1000	–
CC(C)Oc1ccc(F)cc1-c1ccc2c(c1)NC(=O)C1(CCN(C#N)C1)C2 (stereo not drawn) [Example 21, 7′-(5-Fluoro-2-isopropoxyphenyl)-2′-oxo-1′,4′-dihydro-2′H-spiro[pyrrolidine-3,3′-quinoline]-1-carbonitrile]	100 to 1000	–

Compound	IC50 [1] [nM]	IC50 [nM]
CN1CCN(C(=O)c2ccc(-c3ccc4c(c3)NC(=O)C3(CCN(C#N)C3)C4)cc2)CC1 (stereo not drawn) [Example 23, 7′-(4-(4-Methylpiperazine-1-carbonyl)phenyl)-2′-oxo-1′,4′-dihydro-2′H-spiro[pyrrolidine-3,3′-quinoline]-1-carbonitrile]	100 to 1000	–
Cn1ncc2cc(-c3ccc4c(c3)NC(=O)C3(CCN(C#N)C3)C4)ccc21 (stereo not drawn) [Example 24, 7′-(1-Methyl-1H-indazol-5-yl)-2′-oxo-1′,4′-dihydro-2′H-spiro[pyrrolidine-3,3′-quinoline]-1-carbonitrile]	< 100	–
Cc1ccc2[nH]ncc2c1-c1ccc2c(c1)NC(=O)C1(CCN(C#N)C1)C2 (stereo not drawn) [Example 25, 7′-(5-Methyl-1H-indazol-4-yl)-2′-oxo-1′,4′-dihydro-2′H-spiro[pyrrolidine-3,3′-quinoline]-1-carbonitrile]	100 to 1000	–
N#CN1CCC2(Cc3ccc(-c4cccc(NS(=O)(=O)C5CC5)c4)cc3NC2=O)C1 (stereo not drawn) [Example 26, N-(3-(1-Cyano-2′-oxo-1′,4′-dihydro-2′H-spiro[pyrrolidine-3,3′-quinolin]-7′-yl)phenyl)cyclopropanesulfonamide]	100 to 1000	–
Cc1n[nH]cc1-c1ccc2c(c1)NC(=O)C1(CCN(C#N)C1)C2 (stereo not drawn) [Example 27, 7′-(3-Methyl-1H-pyrazol-4-yl)-2′-oxo-1′,4′-dihydro-2′H-spiro[pyrrolidine-3,3′-quinoline]-1-carbonitrile]	1000 to 10000	–
N#CN1CCC2(Cc3ccc(-c4cncnc4)cc3NC2=O)C1 (stereo not drawn) [Example 28, 2′-Oxo-7′-(pyrimidin-5-yl)-1′,4′-dihydro-2′H-spiro[pyrrolidine-3,3′-quinoline]-1-carbonitrile]	100 to 1000	–
CC(=O)Nc1cccc(-c2ccc3c(c2)NC(=O)C2(CCN(C#N)C2)C3)c1 (stereo not drawn) [Example 29, N-(3-(1-Cyano-2′-oxo-1′,4′-dihydro-2′H-spiro[pyrrolidine-3,3′-quinolin]-7′-yl)phenyl)acetamide]	1000 to 10000	–
CN(C)C(=O)c1cccc(-c2ccc3c(c2)NC(=O)C2(CCN(C#N)C2)C3)c1 (stereo not drawn) [Example 30, 3-(1-Cyano-2′-oxo-1′,4′-dihydro-2′H-spiro[pyrrolidine-3,3′-quinolin]-7′-yl)-N,N-dimethylbenzamide]	100 to 1000	–
CC(=O)Nc1ccc(-c2ccc3c(c2)NC(=O)C2(CCN(C#N)C2)C3)cc1 (stereo not drawn) [Example 31, N-(4-(1-Cyano-2′-oxo-1′,4′-dihydro-2′H-spiro[pyrrolidine-3,3′-quinolin]-7′-yl)phenyl)acetamide]	1000 to 10000	–
N#CN1CCC2(Cc3ccc(-c4ccc(S(=O)(=O)N5CCOCC5)cc4)cc3NC2=O)C1 (stereo not drawn) [Example 32, 7′-(4-(Morpholinosulfonyl)phenyl)-2′-oxo-1′,4′-dihydro-2′H-spiro[pyrrolidine-3,3′-quinoline]-1-carbonitrile]	1000 to 10000	–
Cc1n[nH]c(C)c1-c1ccc2c(c1)NC(=O)C1(CCN(C#N)C1)C2 (stereo not drawn) [Example 33, 7′-(3,5-Dimethyl-1H-pyrazol-4-yl)-2′-oxo-1′,4′-dihydro-2′H-spiro[pyrrolidine-3,3′-quinoline]-1-carbonitrile]	1000 to 10000	–
Cc1cc(-c2ccc3c(c2)NC(=O)C2(CCN(C#N)C2)C3)ccn1 (stereo not drawn) [Example 34, 7′-(2-Methylpyridin-4-yl)-2′-oxo-1′,4′-dihydro-2′H-spiro[pyrrolidine-3,3′-quinoline]-1-carbonitrile]	1000 to 10000	–
N#CN1CCC2(Cc3ccc(-c4cccc(N5CCCCC5)c4)cc3NC2=O)C1 (stereo not drawn) [Example 35, 2′-Oxo-7′-(3-(piperidin-1-yl)phenyl)-1′,4′-dihydro-2′H-spiro[pyrrolidine-3,3′-quinoline]-1-carbonitrile]	1000 to 10000	–
CC(=O)Nc1ccccc1-c1ccc2c(c1)NC(=O)C1(CCN(C#N)C1)C2 (stereo not drawn) [Example 36, N-(2-(1-Cyano-2′-oxo-1′,4′-dihydro-2′H-spiro[pyrrolidine-3,3′-quinolin]-7′-yl)phenyl)acetamide]	100 to 1000	–
N#CN1CCC2(Cc3ccc(-c4ccc(C(=O)N5CCOCC5)cc4)cc3NC2=O)C1 (stereo not drawn) [Example 37, 7′-(4-(Morpholine-4-carbonyl)phenyl)-2′-oxo-1′,4′-dihydro-2′H-spiro[pyrrolidine-3,3′-quinoline]-1-carbonitrile]	1000 to 10000	–
N#CN1CCC2(Cc3ccc(-c4cccc(S(=O)(=O)N5CCOCC5)c4)cc3NC2=O)C1 (stereo not drawn) [Example 38, 7′-(3-(Morpholinosulfonyl)phenyl)-2′-oxo-1′,4′-dihydro-2′H-spiro[pyrrolidine-3,3′-quinoline]-1-carbonitrile]	1000 to 10000	–
